Data published in ChEMBL document CHEMBL1147703, “Synthesis of a potent 5'-methylthioadenosine/S-adenosylhomocysteine (MTAN) inhibitor” (Bioorg Med Chem Lett, 2006).

Biological target: 5'-methylthioadenosine/S-adenosylhomocysteine nucleosidase (Escherichia coli O157:H7, UniProt P0AF14)
Assay: Inhibition of Escherichia coli MTAN

5'-methylthioadenosine/S-adenosylhomocysteine nucleosidase, sequence (P0AF14 whole entry): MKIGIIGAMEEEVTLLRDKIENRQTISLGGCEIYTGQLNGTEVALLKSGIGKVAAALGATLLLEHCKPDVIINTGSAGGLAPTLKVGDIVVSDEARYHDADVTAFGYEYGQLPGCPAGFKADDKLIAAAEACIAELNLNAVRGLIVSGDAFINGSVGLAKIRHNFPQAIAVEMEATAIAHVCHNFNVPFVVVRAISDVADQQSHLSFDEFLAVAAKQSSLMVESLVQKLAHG

Nc1ncnc2c([C@@H]3N[C@H](CSCCC(N)C(=O)O)[C@@H](O)[C@H]3O)c[nH]c12 (stereo partly specified)
Ki: 1.7 nM
